Measurements as given in PMC3020970, “K70Q Adds High-Level Tenofovir Resistance to “Q151M Complex” HIV Reverse Transcriptase through the Enhanced Discrimination Mechanism” (PLoS ONE, 2011).
Like-named read-outs stand apart in the source and are kept apart here.

What was measured:
HIV-1 NL4-3 strain (WT) = experiment: microbe, parasite or virus in culture; assay type: cell-based; details: Human immunodeficiency virus 1, NL43; WT, MAGIC-5 cells, Table S1; read-out: EC50
Protocol: (§1) Susceptibilities to various RT inhibitors were determined using the MAGIC-5 cells which are HeLa cells stably transfected with a β-galactosidase gene under the control of an HIV long terminal repeat promoter, and with vectors that express the CD4 receptor and the CCR5 co-receptor under the control of the CMV promoter as described previously. Briefly, MAGIC-5 cells were infected with diluted virus stock (100 blue forming units) in the presence of increasing concentrations of RT inhibitors, cultured for 48 h, fixed, and stained with X-Gal (5-bromo-4-chloro-3-indolyl-β-D-galacto-pyranoside). The stained cells were counted under a light microscope.

[1] = test system: HIV-1 clinical isolate 1 (Q151Mc-containing); experiment: Single-cycle drug susceptibility assay (MAGIC-5 cells), clinical isolate 1; assay type: cell-based; details: Human immunodeficiency virus 1; clinical isolate 1, MAGIC-5 cells
Protocol: (§2) HIV was isolated from fresh plasma immediately after collection of clinical samples from study participants at the outpatient clinic of the AIDS Clinical Center (ACC), International Medical Center of Japan. The Institutional Review Board approved this study (IMCJ-H13-80) and a written consent was obtained from all participants.
as §1

[2] = test system: HIV-1 clinical isolate 2 (Q151Mc + K70Q); experiment: Single-cycle drug susceptibility assay (MAGIC-5 cells), clinical isolate 2; assay type: cell-based; details: Human immunodeficiency virus 1; clinical isolate 2, MAGIC-5 cells
Protocol: as §2, §1

HIV-1 WT = experiment: Single-cycle drug susceptibility assay (MAGIC-5 cells), recombinant WT clone; assay type: cell-based; details: Human immunodeficiency virus 1, Table S2
Protocol: (§3) The NL4-3-based molecular clone was constructed by replacing the pol-coding region with the HIV-1 BH10 strain. […] Each molecular clone was transfected into COS-7 cells. Cells were grown for 48 h, and culture supernatants were harvested and stored at −80°C until use.
as §1

HIV-1 K70E = experiment: Single-cycle drug susceptibility assay (MAGIC-5 cells); assay type: cell-based; details: for EC50: Human immunodeficiency virus 1, MAGIC-5, K70E; for Fold increase in EC50 compared to HIV-1 WT: K70E vs WT
Protocol: as §3, §1

HIV-1 K70G = experiment: as above; assay type: cell-based; details: for EC50: Human immunodeficiency virus 1, MAGIC-5, K70G; for Fold increase in EC50 compared to HIV-1 WT: K70G vs WT
Protocol: as §3, §1

HIV-1 K70N = experiment: as above; assay type: cell-based; details: for EC50: Human immunodeficiency virus 1, MAGIC-5, K70N; for Fold increase in EC50 compared to HIV-1 WT: K70N vs WT
Protocol: as §3, §1

HIV-1 K70Q = experiment: as above; assay type: cell-based; details: for EC50: Human immunodeficiency virus 1, MAGIC-5, K70Q
Protocol: as §3, §1

HIV-1 K70R = experiment: as above; assay type: cell-based; details: for EC50: Human immunodeficiency virus 1, MAGIC-5, K70R; for Fold increase in EC50 compared to HIV-1 WT: K70R vs WT
Protocol: as §3, §1

HIV-1 K70T = experiment: as above; assay type: cell-based; details: for EC50: Human immunodeficiency virus 1, MAGIC-5, K70T; for Fold increase in EC50 compared to HIV-1 WT: K70T vs WT
Protocol: as §3, §1

HIV-1 Q151Mc/K70E = experiment: as above; assay type: cell-based; details: for EC50: Human immunodeficiency virus 1, MAGIC-5, Q151Mc/K70E; for Fold increase in EC50 compared to HIV-1 Q151Mc: Q151Mc/K70E vs Q151Mc
Protocol: as §3, §1

HIV-1 Q151Mc/K70G = experiment: as above; assay type: cell-based; details: for EC50: Human immunodeficiency virus 1, MAGIC-5, Q151Mc/K70G; for Fold increase in EC50 compared to HIV-1 Q151Mc: Q151Mc/K70G vs Q151Mc
Protocol: as §3, §1

HIV-1 Q151Mc/K70N = experiment: as above; assay type: cell-based; details: for EC50: Human immunodeficiency virus 1, MAGIC-5, Q151Mc/K70N; for Fold increase in EC50 compared to HIV-1 Q151Mc: Q151Mc/K70N vs Q151Mc
Protocol: as §3, §1

HIV-1 Q151Mc/K70Q = experiment: as above; assay type: cell-based; details: for EC50: Human immunodeficiency virus 1, MAGIC-5, Q151Mc/K70Q
Protocol: as §3, §1

HIV-1 Q151Mc/K70R = experiment: as above; assay type: cell-based; details: for EC50: Human immunodeficiency virus 1, MAGIC-5, Q151Mc/K70R; for Fold increase in EC50 compared to HIV-1 Q151Mc: Q151Mc/K70R vs Q151Mc
Protocol: as §3, §1

HIV-1 Q151Mc/K70T = experiment: as above; assay type: cell-based; details: for EC50: Human immunodeficiency virus 1, MAGIC-5, Q151Mc/K70T; for Fold increase in EC50 compared to HIV-1 Q151Mc: Q151Mc/K70T vs Q151Mc
Protocol: as §3, §1

HIV-1 Q151Mc [3] = experiment: as above; assay type: cell-based; details: Human immunodeficiency virus 1, MAGIC-5
Protocol: as §3, §1

HIV-1 Q151Mc [4] = details: cited from earlier work; for Increase in resistance: Q151Mc
HIV-1 RT K70Q [5] = target: T1, HIV-1 RT K70Q (Human immunodeficiency virus type 1 group M subtype B, UniProt P03366, K669Q); experiment: ATP-dependent rescue assay; assay type: biochemical
T1 construct: made in house; host or cells: Escherichia coli BL21
Protocol: (§4) Template/primer (T31/P18) terminated with TFV (T/PTFV) was prepared as described in Michailidis et al. 20 nM of T/PTFV was incubated at 37°C with HIV-1 RT (60 nM), either at various concentrations of ATP (0–7 mM) for 30 minutes, or for various times (0–120 minutes) with 3.5 mM ATP, in RT buffer containing 50 mM Tris-HCl, pH 7.8, and 50 mM NaCl, and 10 mM MgCl2. […] Reactions were quenched with 100% formamide containing traces of bromophenol blue and analyzed as described above. The dissociation constants (Kd) of the various enzymes for ATP used in the rescue reactions were determined by fitting the rescue data at various ATP concentrations, using non-linear regression fitting to hyperbola.

HIV-1 RT K70Q/Q151Mc [6] = target: T2, HIV-1 RT K70Q/Q151Mc (Human immunodeficiency virus type 1 group M subtype B, UniProt P03366, A661V/F676L/F715Y/K669Q/Q750M/V674I); experiment: ATP-dependent rescue assay; assay type: biochemical
T2 construct: made in house; host or cells: Escherichia coli BL21
Protocol: as §4

HIV-1 RT Q151Mc [7] = target: T3, HIV-1 RT Q151Mc (Human immunodeficiency virus type 1 group M subtype B, UniProt P03366, A661V/F676L/F715Y/Q750M/V674I); experiment: ATP-dependent rescue assay; assay type: biochemical
T3 construct: made in house; host or cells: Escherichia coli BL21
Protocol: as §4

HIV-1 RT WT = target: T4, HIV-1 RT WT (Human immunodeficiency virus type 1 group M subtype B, UniProt P03366); experiment: ATP-dependent rescue assay; assay type: biochemical; details: rescue of TFV-terminated primer, 30 minutes, read-out: apparent KD-ATP
T4 construct: made in house; host or cells: Escherichia coli BL21
Protocol: as §4

HIV-1 RT K70Q/Q151Mc [8] = experiment: ATP-dependent rescue assay; assay type: biochemical; details: WT RT vs K70Q/Q151Mc RT, TFV-terminated primers, 3.5 mM ATP
Protocol: as §4

HIV-1 RT K70Q [9] = experiment: ATP-dependent rescue assay; assay type: biochemical; details: WT RT vs K70Q RT, TFV-terminated primers, 3.5 mM ATP
Protocol: as §4

HIV-1 RT Q151Mc [10] = experiment: ATP-dependent rescue assay; assay type: biochemical; details: WT RT vs Q151Mc RT, TFV-terminated primers, 3.5 mM ATP
Protocol: as §4

SMILES	EC50 (HIV-1 NL4-3 strain (WT))	EC50 [1]	EC50 [2]	EC50 (HIV-1 WT)	EC50 (HIV-1 K70E)	Fold increase in EC50 compared to HIV-1 WT (HIV-1 K70E)	EC50 (HIV-1 K70G)	Fold increase in EC50 compared to HIV-1 WT (HIV-1 K70G)	EC50 (HIV-1 K70N)	Fold increase in EC50 compared to HIV-1 WT (HIV-1 K70N)	EC50 (HIV-1 K70Q)	EC50 (HIV-1 K70R)	Fold increase in EC50 compared to HIV-1 WT (HIV-1 K70R)	EC50 (HIV-1 K70T)	Fold increase in EC50 compared to HIV-1 WT (HIV-1 K70T)	EC50 (HIV-1 Q151Mc/K70E)	Fold increase in EC50 compared to HIV-1 Q151Mc (HIV-1 Q151Mc/K70E)	EC50 (HIV-1 Q151Mc/K70G)	Fold increase in EC50 compared to HIV-1 Q151Mc (HIV-1 Q151Mc/K70G)	EC50 (HIV-1 Q151Mc/K70N)	other results
Nc1nc(NC2CC2)c2ncn([C@H]3C=C[C@@H](CO)C3)c2n1 [ABC, abacavir]	1.6 ± 0.46 µM	16.3 ± 2.52 µM	24.7 ± 2.89 µM	1.8 ± 0.22 µM	7.3 ± 0.12 µM	(4.1) fold	6.6 ± 0.29 µM	(3.7) fold	3.2 ± 0.3 µM	(1.8) fold	3.5 ± 0.6 µM	2.8 ± 0.31 µM	(1.6) fold	2.6 ± 0.21 µM	(1.4) fold	34 ± 2.1 µM	(2.3) fold	35 ± 2.7 µM	(2.5) fold	16 ± 2.1 µM	Fold increase in EC50 compared to HIV-1 WT (HIV-1 K70Q; K70Q vs WT): (1.9) fold; Fold increase in EC50 compared to HIV-1 Q151Mc (HIV-1 Q151Mc/K70N): (1.1) fold; EC50 (HIV-1 Q151Mc/K70Q): 24 ± 2.9 µM; Fold increase in EC50 compared to HIV-1 Q151Mc (HIV-1 Q151Mc/K70Q; Q151Mc/K70Q vs Q151Mc): (1.6) fold; EC50 (HIV-1 Q151Mc/K70R): 14 ± 1 µM; Fold increase in EC50 compared to HIV-1 Q151Mc (HIV-1 Q151Mc/K70R): (0.9) fold; EC50 (HIV-1 Q151Mc/K70T): 25 ± 2.3 µM; Fold increase in EC50 compared to HIV-1 Q151Mc (HIV-1 Q151Mc/K70T): (1.7) fold; EC50 (HIV-1 Q151Mc [3]): 15 ± 2.1 µM; Resistance (HIV-1 Q151Mc [4]; Q151M plus the four associated mutations ref 17, 18, 19, 20, 21): 5 fold
Nc1ncnc2c1ncn2[C@@H]1O[C@H](COP(=O)(O)OP(=O)(O)OP(=O)(O)O)[C@@H](O)[C@H]1O [ATP, adenosine triphosphate]																					Kd (HIV-1 RT K70Q [5]): 700 µM; Kd (HIV-1 RT K70Q/Q151Mc [6]): 3100 µM; Kd (HIV-1 RT Q151Mc [7]): 2300 µM; Kd (HIV-1 RT WT): 400 µM
C[C@H](Cn1cnc2c(N)ncnc21)OCP(=O)(O)O [TFV, tenofovir]																					ATP-based rescue activity of WT RT, fold faster than mutant RT (HIV-1 RT K70Q/Q151Mc [8]): 3 fold; ATP-based rescue activity of WT RT, fold faster than mutant RT (HIV-1 RT K70Q [9]): 1.5 fold; ATP-based rescue activity of WT RT, fold faster than mutant RT (HIV-1 RT Q151Mc [10]): 2.5 fold; Increase in resistance (HIV-1 Q151Mc [4]; Miller et al. ref 22): 1.8 fold; Increase in resistance (HIV-1 Q151Mc [4]; Smith et al. ref 23): 3.6 fold
O=c1[nH]cnc2c1ncn2[C@H]1CC[C@@H](CO)O1 [ddI, didanosine]	2.5 ± 0.35 µM	29.3 ± 3.06 µM	> 100 µM	2.4 ± 0.26 µM	13 ± 3.5 µM	(5.4) fold	16 ± 1.5 µM	(6.7) fold	3.7 ± 0.32 µM	(1.5) fold	12 ± 1.7 µM	3.3 ± 0.29 µM	(1.4) fold	8.9 ± 0.31 µM	(3.7) fold	30 ± 1.7 µM	(0.7) fold	59 ± 5 µM	(1.3) fold	109 ± 4.4 µM	Fold increase in EC50 compared to HIV-1 Q151Mc (HIV-1 Q151Mc/K70N): (2.4) fold; EC50 (HIV-1 Q151Mc/K70Q): 108 ± 2.5 µM; EC50 (HIV-1 Q151Mc/K70R): 53 ± 3.1 µM; Fold increase in EC50 compared to HIV-1 Q151Mc (HIV-1 Q151Mc/K70R): (1.2) fold; EC50 (HIV-1 Q151Mc/K70T): 13 ± 1.5 µM; Fold increase in EC50 compared to HIV-1 Q151Mc (HIV-1 Q151Mc/K70T): (0.3) fold; EC50 (HIV-1 Q151Mc [3]): 45 ± 1 µM
